SMILES strings stand for the structures.

We go through 4 compounds from patent publication US9244057B2, “Multiphase microarrays and uses thereof” (THE REGENTS OF THE UNIVERSITY OF MICHIGAN, priority 2010, dated 2016).

The experiment concerns MDA-MB-231 breast cancer cells. Nature of the experiment: cell-exclusion migration assay (aqueous two-phase system patterning, 96-well plate). Format: cell-based, human. The note with it: MDA-MB-231 cells; for effect on motility/migration of cells (in words): blebbistatin 5-200 μM for 18 hrs, then another 12 hrs in culture medium before imaging. As for the experimental part: 6.4% (w/w) solution of the DEX 500K phase was prepared in culture media and kept at 4° C. until use. The tip magazine of an automated liquid handler (CyBi-Well, CyBio) was loaded with 96 sterile 25 μl pipette tips (CyBio). 75 μl of the DEX solution was pipetted into each well of a 96-well microplate (Corning), which was then placed on the stage of the liquid handler. To load pipette tips with the DEX solution, the stage was slowly raised until the pipette tips were slightly inside the DEX solution. 10 μl of the DEX solution was aspirated into the tips at a rate of 5 μl/s. The loaded tips were brought within 200 μm of the bottom of the wells of an empty microplate and 0.8 μl of the DEX solution was dispensed onto the surface at a rate of 0.5 μl/s to form circular droplets. The microplate was kept in a culture hood for at least 24 hrs to allow the droplets to dry. Images of the dried droplets were captured using a bright-field microscope (Nikon, TS-200). The Feret diameters of the droplets were determined using the “Analyze Particles” function of ImageJ (NIH). Droplets whose Feret diameters were not within ˜1% of the desired mean diameter were excluded from use in the assay. The entire printing and drying process was performed in a sterile culture hood.
Three different human cancer cell lines were used: MDA-MB-231 breast cancer cells (ATCC) were cultured in DMEM medium supplemented with 10% heat-inactivated fetal bovine serum (HI-FBS, Invitrogen), 1% glutamine (Invitrogen), and 1% antibiotic. A549 lung cancer cells (ATCC) were cultured using F-12K medium (ATCC) supplemented with 10% HI-FBS and 1% antibiotic. PC-3 prostate cancer cells were maintained in DMEM supplemented with 10% HI-FBS and 1% antibiotic. Cells were maintained in a cell culture incubator at 37° C. with 5% CO2 and 95% humidity. When at desired confluence, cells were washed with PBS and Hank's-based enzyme-free cell dissociation buffer was added to the flask. Cells were incubated for 30 min and then collected and suspended in complete growth medium. After centrifuging down for 5 min at 4° C. and 1000 rpm, cells were resuspended in appropriate volume of the culture medium to give a density of 2×10^6 cells/ml.
5.0% (w/w) solution of the PEG 35K phase was prepared in culture media and kept at 4° C. until use. This solution was added to the cell suspension at a 1:1 (v/v) ratio to give a final PEG phase concentration of 2.5%. Prior to this step, cell suspension density was adjusted by addition of culture media to result in a final density of 4.5×10^4 MDA-MB-231 cells, 4.0×10^4 A549 cells, and 4.5×10^4 PC-3 cells after addition of the PEG-containing media. These cell densities were selected from preliminary experiments that evaluated the number of cells required to form a confluent monolayer per unit surface area. 80 μl of the resulting solution was added to each well of a 96-well plate, which was incubated at 37° C. with 5% CO2 and 95% humidity overnight (12 hrs). Then, the two-phase media was washed out and replaced with regular culture media. This was set as the time zero of the migration experiment.
After allowing MDA-MB-231 cells to spread and form a confluent monolayer around the cell excluded gaps, they were treated with (±)-blebbistatin at different concentrations in the range 5-200 μM or anti-cancer drugs paclitaxel, colchicine, and nocodazole in the concentration range of 1-1000 nM. Cells were incubated for 18 hrs in the presence of blebbistatin, washed with PBS once, and regular culture medium was added. Incubation continued for another 12 hrs before imaging. To study the effect of anti-cancer drugs, cells were incubated with each drug for 2 hrs, washed with PBS, and then supplied with culture medium. Imaging was performed after 30 hrs of incubation. Experiments were set in 30 replicates. All reagents were purchased from Sigma.
After migration experiments were complete, cells were stained with a 5 μM Calcein AM and the plates were incubated at 37° C. for 30 min. […]

[1] abbreviates: 2 hr treatment, tested 1-1000 nM, imaging after 30 hrs.

`Cc1ccc2c(c1)C(=O)C1(O)CCN(c3ccccc3)C1=N2` (racemic) [blebbistatin, (±)-blebbistatin]: the “effect on motility/migration of cells (in words)” value was “dose-dependent response”. Further, the “effect on motility/migration of cells (in words)” value (listed as Blebbistatin) was “dose-dependent inhibition”. In addition, where the note is “six concentrations 5-200 μM for 18 hrs, BioDataFit software, read-out: IC50 for inhibition of cell migration”, the IC50 worked out at 31.8 µM.
Turning to `COC(=O)Nc1nc2ccc(C(=O)c3cccs3)cc2[nH]1` [Nocodazole, nocodazole], the reduction of migration entry under setting [1] is “less than 20%”.
As for `CC(=O)O[C@H]1C(=O)[C@@]2(C)[C@H]([C@H](OC(=O)c3ccccc3)[C@]3(O)C[C@H](OC(=O)[C@H](O)[C@@H](NC(=O)c4ccccc4)c4ccccc4)C(C)=C1C3(C)C)[C@]1(OC(C)=O)CO[C@@H]1C[C@@H]2O` [Paclitaxel, paclitaxel], the “concentration range showing potency for inhibiting cell motility” value under setting [1] is 0.01 to 0.1 µM.
In the case of `COc1cc2c(c(OC)c1OC)-c1ccc(OC)c(=O)cc1[C@@H](NC(C)=O)CC2` [colchicine], the “effect on cell motility (in words)” value (2 hr treatment, tested 1-1000 nM, imaging after 30 hrs, especially above 100 nM) is given as “reduced cell motility in a dose-dependent manner”.
